Source: article PMC8213057, “Targeting ALK2: An Open Science Approach to Developing Therapeutics for the Treatment of Diffuse Intrinsic Pontine Glioma” (Journal of Medicinal Chemistry, 2020)

Assays:
MSK1/RPS6KA5 = MSK1/RPS6KA5 (Homo sapiens, UniProt O75582); settings: 1 μM; Run 1, Run 2
ULK2 = molecular target: T1, ULK2 (Homo sapiens, UniProt Q8IYT8); settings: 1 μM; Run 1, Run 2
T1 sequence (Q8IYT8 1-1036): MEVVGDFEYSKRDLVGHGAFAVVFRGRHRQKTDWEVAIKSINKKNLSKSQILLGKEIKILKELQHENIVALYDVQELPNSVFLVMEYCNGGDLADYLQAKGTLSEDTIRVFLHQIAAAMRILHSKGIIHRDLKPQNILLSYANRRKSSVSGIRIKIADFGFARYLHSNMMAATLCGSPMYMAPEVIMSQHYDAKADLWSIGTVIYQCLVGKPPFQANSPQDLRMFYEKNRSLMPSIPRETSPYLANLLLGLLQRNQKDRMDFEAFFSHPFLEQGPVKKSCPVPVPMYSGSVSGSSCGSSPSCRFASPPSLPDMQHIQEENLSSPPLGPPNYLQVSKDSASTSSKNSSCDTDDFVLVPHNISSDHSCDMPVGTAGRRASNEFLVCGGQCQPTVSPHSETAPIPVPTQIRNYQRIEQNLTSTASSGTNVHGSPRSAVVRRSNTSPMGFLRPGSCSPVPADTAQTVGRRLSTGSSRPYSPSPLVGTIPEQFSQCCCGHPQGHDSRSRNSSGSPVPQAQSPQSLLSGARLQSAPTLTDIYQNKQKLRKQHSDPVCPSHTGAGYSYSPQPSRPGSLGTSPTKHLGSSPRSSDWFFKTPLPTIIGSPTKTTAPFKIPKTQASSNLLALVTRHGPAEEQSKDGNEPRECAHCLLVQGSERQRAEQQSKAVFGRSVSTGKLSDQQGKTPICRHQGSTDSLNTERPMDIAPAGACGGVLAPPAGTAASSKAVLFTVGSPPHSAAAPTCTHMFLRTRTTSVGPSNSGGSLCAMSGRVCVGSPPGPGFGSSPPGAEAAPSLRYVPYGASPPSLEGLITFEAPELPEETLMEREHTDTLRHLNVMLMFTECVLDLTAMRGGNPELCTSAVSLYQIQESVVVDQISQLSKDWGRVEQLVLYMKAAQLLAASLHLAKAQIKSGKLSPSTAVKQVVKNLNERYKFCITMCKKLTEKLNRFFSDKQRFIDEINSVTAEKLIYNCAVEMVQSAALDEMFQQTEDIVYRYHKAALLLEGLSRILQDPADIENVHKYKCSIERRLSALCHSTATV

JAK3 = molecular target: T2, JAK3 (Homo sapiens, UniProt P52333); assay: biochemical; settings: read-out: % enzyme activity, 1 μM; Run 1, Run 2
T2 sequence (P52333 1-1124): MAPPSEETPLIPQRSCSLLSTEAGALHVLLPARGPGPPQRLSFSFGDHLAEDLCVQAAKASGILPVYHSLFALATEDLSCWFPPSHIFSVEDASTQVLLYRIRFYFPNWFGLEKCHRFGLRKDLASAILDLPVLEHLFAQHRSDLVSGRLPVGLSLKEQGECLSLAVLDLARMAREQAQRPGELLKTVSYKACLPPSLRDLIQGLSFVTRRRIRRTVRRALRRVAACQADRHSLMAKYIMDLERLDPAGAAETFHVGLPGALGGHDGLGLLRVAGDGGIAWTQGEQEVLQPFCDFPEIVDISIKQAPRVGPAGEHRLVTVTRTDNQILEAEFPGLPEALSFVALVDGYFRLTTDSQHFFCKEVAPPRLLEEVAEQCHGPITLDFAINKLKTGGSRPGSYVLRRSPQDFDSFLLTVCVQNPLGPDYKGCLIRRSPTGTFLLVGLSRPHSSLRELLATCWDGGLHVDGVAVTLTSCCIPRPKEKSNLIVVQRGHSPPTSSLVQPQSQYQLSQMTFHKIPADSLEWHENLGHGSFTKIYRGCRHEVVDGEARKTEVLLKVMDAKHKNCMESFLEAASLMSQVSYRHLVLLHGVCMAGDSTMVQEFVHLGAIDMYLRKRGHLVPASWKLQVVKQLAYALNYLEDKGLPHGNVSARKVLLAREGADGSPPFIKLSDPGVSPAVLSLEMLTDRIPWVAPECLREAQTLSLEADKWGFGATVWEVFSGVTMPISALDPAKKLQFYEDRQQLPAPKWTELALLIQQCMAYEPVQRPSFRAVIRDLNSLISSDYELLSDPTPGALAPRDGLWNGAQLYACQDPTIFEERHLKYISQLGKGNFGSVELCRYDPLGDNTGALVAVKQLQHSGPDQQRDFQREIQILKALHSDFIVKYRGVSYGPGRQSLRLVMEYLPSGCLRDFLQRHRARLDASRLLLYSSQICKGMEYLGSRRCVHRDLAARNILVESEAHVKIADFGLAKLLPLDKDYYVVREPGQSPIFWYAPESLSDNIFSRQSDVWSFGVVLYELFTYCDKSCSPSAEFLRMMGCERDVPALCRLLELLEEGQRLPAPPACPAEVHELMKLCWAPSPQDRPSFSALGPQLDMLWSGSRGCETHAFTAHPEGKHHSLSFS

MSK2/RPS6KA4 = MSK2/RPS6KA4 (Homo sapiens, UniProt O75676); assay: biochemical; settings: read-out: % enzyme activity, 1 μM; Run 1, Run 2
SIK1 = SIK1 (Homo sapiens, UniProt P57059); assay: biochemical; settings: read-out: % enzyme activity, 1 μM; Run 1, Run 2
VRK2 = VRK2 (Homo sapiens, UniProt Q86Y07); assay: biochemical; settings: read-out: % enzyme activity, 1 μM; Run 1, Run 2
VRK2, sequence (Q86Y07 whole entry, species assumed): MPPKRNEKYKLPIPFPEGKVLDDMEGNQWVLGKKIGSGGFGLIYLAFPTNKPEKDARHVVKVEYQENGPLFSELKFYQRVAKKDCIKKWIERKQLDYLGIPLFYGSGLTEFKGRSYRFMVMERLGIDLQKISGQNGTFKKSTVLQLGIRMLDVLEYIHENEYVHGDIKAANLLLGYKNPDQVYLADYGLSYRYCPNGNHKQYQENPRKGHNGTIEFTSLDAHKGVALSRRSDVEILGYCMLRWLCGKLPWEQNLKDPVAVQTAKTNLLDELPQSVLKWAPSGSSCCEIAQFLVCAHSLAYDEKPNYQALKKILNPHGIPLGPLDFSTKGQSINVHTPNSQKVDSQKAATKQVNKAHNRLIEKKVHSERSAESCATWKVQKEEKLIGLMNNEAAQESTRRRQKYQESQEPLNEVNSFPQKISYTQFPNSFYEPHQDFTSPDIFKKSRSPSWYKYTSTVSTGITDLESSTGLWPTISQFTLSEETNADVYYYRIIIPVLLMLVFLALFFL

SIK1, sequence (P57059 whole entry): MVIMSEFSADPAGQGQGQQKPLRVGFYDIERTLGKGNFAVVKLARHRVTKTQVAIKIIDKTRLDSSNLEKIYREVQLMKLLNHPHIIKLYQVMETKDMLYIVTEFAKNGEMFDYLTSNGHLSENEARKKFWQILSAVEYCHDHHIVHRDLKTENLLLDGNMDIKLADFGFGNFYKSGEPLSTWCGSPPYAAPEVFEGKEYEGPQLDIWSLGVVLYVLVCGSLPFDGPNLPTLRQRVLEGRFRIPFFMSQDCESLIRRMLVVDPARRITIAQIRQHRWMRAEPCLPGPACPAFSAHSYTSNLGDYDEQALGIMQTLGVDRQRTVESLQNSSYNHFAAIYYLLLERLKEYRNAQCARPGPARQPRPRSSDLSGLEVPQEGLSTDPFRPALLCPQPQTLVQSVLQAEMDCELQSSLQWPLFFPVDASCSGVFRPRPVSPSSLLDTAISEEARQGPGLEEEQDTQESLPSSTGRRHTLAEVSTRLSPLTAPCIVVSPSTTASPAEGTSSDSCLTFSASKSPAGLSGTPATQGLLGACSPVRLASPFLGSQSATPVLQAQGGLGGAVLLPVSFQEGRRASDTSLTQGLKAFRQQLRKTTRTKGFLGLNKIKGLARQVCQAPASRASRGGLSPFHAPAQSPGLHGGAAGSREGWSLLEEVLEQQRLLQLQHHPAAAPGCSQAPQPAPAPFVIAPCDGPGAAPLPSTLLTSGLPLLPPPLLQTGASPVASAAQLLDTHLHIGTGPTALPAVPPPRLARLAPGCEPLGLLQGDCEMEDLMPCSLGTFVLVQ
MSK1/RPS6KA5, sequence (O75582 whole entry): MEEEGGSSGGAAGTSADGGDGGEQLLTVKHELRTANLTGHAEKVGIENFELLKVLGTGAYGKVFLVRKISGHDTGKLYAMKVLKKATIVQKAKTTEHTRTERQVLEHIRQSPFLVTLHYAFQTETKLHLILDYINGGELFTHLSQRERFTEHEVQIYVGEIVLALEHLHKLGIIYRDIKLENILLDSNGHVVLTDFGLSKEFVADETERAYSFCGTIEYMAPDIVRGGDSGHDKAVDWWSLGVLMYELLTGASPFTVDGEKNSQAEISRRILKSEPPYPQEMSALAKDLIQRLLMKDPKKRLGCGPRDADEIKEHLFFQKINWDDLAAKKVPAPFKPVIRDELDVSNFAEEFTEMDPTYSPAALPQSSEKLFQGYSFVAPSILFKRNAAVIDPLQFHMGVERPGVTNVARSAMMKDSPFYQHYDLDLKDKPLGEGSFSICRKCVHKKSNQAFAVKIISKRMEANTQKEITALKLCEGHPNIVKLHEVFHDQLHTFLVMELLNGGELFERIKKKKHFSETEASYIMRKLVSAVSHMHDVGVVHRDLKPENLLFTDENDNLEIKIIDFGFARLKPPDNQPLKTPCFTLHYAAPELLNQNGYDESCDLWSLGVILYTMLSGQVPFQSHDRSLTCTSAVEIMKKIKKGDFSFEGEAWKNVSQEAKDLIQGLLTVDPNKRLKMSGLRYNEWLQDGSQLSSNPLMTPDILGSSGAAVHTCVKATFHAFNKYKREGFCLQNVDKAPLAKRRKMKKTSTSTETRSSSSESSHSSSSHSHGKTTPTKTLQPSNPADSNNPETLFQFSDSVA
MSK2/RPS6KA4, sequence (O75676 whole entry): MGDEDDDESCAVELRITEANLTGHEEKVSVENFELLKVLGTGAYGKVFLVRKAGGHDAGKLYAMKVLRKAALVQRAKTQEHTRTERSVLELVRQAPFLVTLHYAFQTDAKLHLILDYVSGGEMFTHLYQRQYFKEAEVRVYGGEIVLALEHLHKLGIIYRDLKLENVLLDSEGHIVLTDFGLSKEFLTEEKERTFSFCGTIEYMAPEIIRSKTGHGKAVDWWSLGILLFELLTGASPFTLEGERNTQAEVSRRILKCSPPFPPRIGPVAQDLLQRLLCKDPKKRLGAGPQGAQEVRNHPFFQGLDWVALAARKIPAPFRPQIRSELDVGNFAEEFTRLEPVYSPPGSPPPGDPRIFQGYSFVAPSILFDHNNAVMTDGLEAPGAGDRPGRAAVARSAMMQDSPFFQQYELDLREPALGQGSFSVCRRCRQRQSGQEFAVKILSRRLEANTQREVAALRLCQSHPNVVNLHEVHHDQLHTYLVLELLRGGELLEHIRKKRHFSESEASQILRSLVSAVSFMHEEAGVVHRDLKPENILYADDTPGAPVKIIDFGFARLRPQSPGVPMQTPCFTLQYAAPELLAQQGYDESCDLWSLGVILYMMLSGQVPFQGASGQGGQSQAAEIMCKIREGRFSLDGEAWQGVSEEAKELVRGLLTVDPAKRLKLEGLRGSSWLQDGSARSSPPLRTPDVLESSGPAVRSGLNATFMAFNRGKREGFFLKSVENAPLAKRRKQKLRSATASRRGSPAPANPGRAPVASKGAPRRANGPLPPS

Compound	% enzyme activity (MSK1/RPS6KA5) [%]	% enzyme activity (ULK2) [%]	remaining activity at 1 µM (JAK3) [%]	remaining activity at 1 µM (MSK2/RPS6KA4) [%]	remaining activity at 1 µM (SIK1) [%]	remaining activity at 1 µM (VRK2) [%]
COc1cc(-c2cncc(-c3ccc(N4CCN(C)CC4)cc3)c2C)cc(F)c1C(N)=O [Compound 26a, 2-Fluoro-6-methoxy-4-(4-methyl-5-(4-(4-methylpiperazin-1-yl)phenyl)pyridin-3-yl)benzamide]	82.15	73.24	106	97.1	82.9	89.1
COc1cc(-c2cncc(-c3ccc(N4C[C@@H](C)N(C)[C@@H](C)C4)cc3)c2C)cc(F)c1C(N)=O [Compound 26c, 2-Fluoro-6-methoxy-4-(4-methyl-5-(4-((3R,5S)-3,4,5-trimethylpiperazin-1-yl)phenyl)pyridin-3-yl)benzamide]	89.44	84.46	101	95.4	93.8	92.5
